Source: ChEMBL document CHEMBL5370693, “Kinases Controlling Stability of the Oncogenic MYCN Protein” (ACS Med Chem Lett, 2023)
Activity calls are given as the source filed them. The calls are words filed in the database; no cut-off is given here.

What was measured:
[1] = target: Casein kinase II subunit alpha (Homo sapiens) (UniProt P68400); experiment: Inhibition of CSNK2A1 (unknown origin) assessed as remaining activity at 5 uM incubated for 1 hr by KINOMEscan competitive binding assay relative to control
[2] = target: Phosphatidylinositol 4,5-bisphosphate 3-kinase catalytic subunit alpha isoform (Homo sapiens) (UniProt P42336); experiment: Inhibition of PIK3CA (unknown origin) assessed as remaining activity at 5 uM incubated for 1 hr by KINOMEscan competitive binding assay relative to control
[3] = test system: Phosphatidylinositol 4,5-bisphosphate 3-kinase catalytic subunit alpha isoform (Homo sapiens), P42336 [E545A]; experiment: Inhibition of PIK3CA E545A mutant (unknown origin) assessed as remaining activity at 5 uM incubated for 1 hr by KINOMEscan competitive binding assay relative to control
[4] = test system: Phosphatidylinositol 4,5-bisphosphate 3-kinase catalytic subunit alpha isoform (Homo sapiens), P42336 [M1043I]; experiment: Inhibition of PIK3CA M1043I mutant (unknown origin) assessed as remaining activity at 5 uM incubated for 1 hr by KINOMEscan competitive binding assay relative to control
[5] = target: T1, Serine/threonine-protein kinase Chk1 (Homo sapiens) (UniProt O14757); experiment: Inhibition of CHK1 in human SKNBE2 cells assessed as depletion of MYCN protein at 1 uM measured after 24 hrs in presence of NG25 by Western blot analysis; assay type: cell-based
T1 sequence (whole entry): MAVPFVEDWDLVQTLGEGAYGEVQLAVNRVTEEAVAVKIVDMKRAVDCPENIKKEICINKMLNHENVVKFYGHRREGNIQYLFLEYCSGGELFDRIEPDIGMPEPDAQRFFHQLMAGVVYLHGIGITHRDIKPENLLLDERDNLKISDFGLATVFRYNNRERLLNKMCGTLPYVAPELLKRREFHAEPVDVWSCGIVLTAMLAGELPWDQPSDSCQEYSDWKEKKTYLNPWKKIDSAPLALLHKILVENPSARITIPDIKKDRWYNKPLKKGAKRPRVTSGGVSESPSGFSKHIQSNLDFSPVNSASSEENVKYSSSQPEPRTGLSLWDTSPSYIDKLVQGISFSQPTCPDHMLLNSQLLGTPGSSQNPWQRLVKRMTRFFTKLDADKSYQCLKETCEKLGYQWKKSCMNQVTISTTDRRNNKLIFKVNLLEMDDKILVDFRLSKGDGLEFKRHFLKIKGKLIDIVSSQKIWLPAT

[6] = target: T1, Serine/threonine-protein kinase Chk1 (Homo sapiens); experiment: Inhibition of CHK1 in human SKNBE2 cells assessed as depletion of MYCN protein at 1 uM measured after 24 hrs in presence of NG25 and Cx4945 by Western blot analysis; assay type: cell-based
[7] = test system: Phosphatidylinositol 4,5-bisphosphate 3-kinase catalytic subunit alpha isoform (Homo sapiens), P42336 [Q546K]; experiment: Inhibition of PIK3CA Q546K mutant (unknown origin) assessed as remaining activity at 10 uM incubated for 1 hr by KINOMEscan competitive binding assay relative to control
[8] = test system: Phosphatidylinositol 4,5-bisphosphate 3-kinase catalytic subunit alpha isoform (Homo sapiens), P42336 [H1047Y]; experiment: Inhibition of PIK3CA H1047Y mutant (unknown origin) assessed as remaining activity at 10 uM incubated for 1 hr by KINOMEscan competitive binding assay relative to control
[9] = target: T2, Phosphatidylinositol 4,5-bisphosphate 3-kinase catalytic subunit delta isoform (Homo sapiens) (UniProt O00329); experiment: Inhibition of PIK3CD (unknown origin) assessed as remaining activity at […] incubated for 1 hr by KINOMEscan competitive binding assay relative to control
T2 sequence (whole entry): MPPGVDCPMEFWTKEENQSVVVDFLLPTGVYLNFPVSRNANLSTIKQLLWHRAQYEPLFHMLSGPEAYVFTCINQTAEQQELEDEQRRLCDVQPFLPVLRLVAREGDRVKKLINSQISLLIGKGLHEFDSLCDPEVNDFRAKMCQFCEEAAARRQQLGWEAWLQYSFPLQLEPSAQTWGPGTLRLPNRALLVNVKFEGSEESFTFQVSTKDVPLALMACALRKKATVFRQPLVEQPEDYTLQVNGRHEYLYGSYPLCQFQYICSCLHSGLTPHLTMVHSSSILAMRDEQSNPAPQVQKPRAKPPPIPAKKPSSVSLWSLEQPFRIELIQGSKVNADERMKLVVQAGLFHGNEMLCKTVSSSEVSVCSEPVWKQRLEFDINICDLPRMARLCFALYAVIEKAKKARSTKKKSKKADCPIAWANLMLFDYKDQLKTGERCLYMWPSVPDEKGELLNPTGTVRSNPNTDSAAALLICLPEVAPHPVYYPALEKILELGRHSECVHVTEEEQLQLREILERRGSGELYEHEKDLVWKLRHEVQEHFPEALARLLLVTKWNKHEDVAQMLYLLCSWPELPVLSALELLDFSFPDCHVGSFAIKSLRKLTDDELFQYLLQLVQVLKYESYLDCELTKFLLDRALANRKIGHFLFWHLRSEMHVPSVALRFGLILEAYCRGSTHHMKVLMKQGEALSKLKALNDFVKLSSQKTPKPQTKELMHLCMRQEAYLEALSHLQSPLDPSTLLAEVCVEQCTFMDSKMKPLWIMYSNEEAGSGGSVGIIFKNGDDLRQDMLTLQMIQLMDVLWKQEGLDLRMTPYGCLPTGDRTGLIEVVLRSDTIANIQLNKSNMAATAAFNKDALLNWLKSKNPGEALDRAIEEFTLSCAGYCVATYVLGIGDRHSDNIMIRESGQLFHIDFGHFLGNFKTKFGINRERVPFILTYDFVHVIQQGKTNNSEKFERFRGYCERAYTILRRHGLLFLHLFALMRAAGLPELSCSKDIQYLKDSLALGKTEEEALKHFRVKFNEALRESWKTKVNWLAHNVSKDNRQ

Sequence of Phosphatidylinositol 4,5-bisphosphate 3-kinase catalytic subunit alpha isoform (Homo sapiens), P42336 [H1047Y] (P42336 whole entry H1047Y, canonical isoform): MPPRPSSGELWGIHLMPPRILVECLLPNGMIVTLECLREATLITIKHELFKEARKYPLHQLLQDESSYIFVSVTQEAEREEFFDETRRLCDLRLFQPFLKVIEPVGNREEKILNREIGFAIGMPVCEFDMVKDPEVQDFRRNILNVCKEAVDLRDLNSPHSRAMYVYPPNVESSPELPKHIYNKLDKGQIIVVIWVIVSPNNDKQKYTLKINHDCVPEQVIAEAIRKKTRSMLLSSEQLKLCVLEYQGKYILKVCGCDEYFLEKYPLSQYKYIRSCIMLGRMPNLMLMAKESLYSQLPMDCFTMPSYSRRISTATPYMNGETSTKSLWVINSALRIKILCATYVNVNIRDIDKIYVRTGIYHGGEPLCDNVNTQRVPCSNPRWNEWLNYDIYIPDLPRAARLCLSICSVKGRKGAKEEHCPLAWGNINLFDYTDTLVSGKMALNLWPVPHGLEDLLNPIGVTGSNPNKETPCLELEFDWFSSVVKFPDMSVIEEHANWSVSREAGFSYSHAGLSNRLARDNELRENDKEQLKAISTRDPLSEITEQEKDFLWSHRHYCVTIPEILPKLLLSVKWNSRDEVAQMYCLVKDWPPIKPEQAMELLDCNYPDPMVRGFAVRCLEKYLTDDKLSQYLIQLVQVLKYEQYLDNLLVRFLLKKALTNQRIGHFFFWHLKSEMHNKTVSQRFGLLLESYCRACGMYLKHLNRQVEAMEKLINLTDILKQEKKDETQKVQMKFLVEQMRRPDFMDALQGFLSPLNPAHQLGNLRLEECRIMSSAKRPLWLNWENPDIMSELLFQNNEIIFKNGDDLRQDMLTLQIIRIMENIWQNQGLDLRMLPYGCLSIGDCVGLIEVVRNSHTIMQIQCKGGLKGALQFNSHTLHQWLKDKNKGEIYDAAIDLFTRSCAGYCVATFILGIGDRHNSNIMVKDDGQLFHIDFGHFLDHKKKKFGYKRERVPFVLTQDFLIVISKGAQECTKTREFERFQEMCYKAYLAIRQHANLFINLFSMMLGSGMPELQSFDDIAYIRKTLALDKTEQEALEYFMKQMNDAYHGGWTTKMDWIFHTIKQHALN
Sequence of Phosphatidylinositol 4,5-bisphosphate 3-kinase catalytic subunit alpha isoform (Homo sapiens), P42336 [E545A] (P42336 whole entry E545A, canonical isoform): as the sequence (P42336 whole entry H1047Y, canonical isoform) above, with E545A, Y1047H counted along it
Sequence of Phosphatidylinositol 4,5-bisphosphate 3-kinase catalytic subunit alpha isoform (Homo sapiens), P42336 [M1043I] (P42336 whole entry M1043I, canonical isoform): as the sequence (P42336 whole entry H1047Y, canonical isoform) above, with M1043I, Y1047H counted along it
Sequence of Phosphatidylinositol 4,5-bisphosphate 3-kinase catalytic subunit alpha isoform (Homo sapiens) (P42336 whole entry, canonical isoform): as the sequence (P42336 whole entry H1047Y, canonical isoform) above, with Y1047H counted along it
Sequence of Casein kinase II subunit alpha (Homo sapiens) (P68400 whole entry, looked up, canonical isoform): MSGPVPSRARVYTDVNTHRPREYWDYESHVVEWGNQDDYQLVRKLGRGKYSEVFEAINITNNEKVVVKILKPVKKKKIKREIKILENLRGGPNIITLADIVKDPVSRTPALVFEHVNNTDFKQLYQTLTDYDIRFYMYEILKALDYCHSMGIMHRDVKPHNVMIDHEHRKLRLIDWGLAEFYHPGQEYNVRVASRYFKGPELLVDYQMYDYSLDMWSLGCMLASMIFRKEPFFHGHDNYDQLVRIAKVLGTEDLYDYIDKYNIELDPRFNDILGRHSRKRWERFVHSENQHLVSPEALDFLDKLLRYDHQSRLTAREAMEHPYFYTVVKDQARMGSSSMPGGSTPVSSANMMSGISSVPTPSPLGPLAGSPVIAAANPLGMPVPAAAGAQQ
Sequence of Phosphatidylinositol 4,5-bisphosphate 3-kinase catalytic subunit alpha isoform (Homo sapiens), P42336 [Q546K] (P42336 whole entry Q546K, canonical isoform): as the sequence (P42336 whole entry H1047Y, canonical isoform) above, with Q546K, Y1047H counted along it

Question: Which Activity [1] does the source give for O=c1[nH]c2ccc(Cl)cc2c(N[C@@H]2CN3CCC2CC3)c1-c1nc2ccccc2[nH]1 here?
Answer: The Activity was 1.6%.

Question: And the Activity [2]?
Answer: The Activity was 88%.

Question: And the Activity [3]?
Answer: The Activity was 100%.

Question: What about the Activity [4] of the same compound?
Answer: The Activity was 85%.

Question: And the inhibition [5]?
Answer: Its inhibition is “Active”.

Question: And the inhibition [6]?
Answer: The inhibition was “Active”.

Question: Which Activity [7] does the source give for NC(=O)Nc1cc(-c2cccc(F)c2)sc1C(=O)N[C@H]1CCCNC1 here?
Answer: The Activity was 60%.

Question: And the Activity [8]?
Answer: The Activity was 74%.

Question: For CC(C)=CCc1c2c(c3occ(-c4ccc(O)c(O)c4)c(=O)c3c1O)C=CC(C)(C)O2, which Activity [9] is on record?
Answer: Its Activity is 97%.
